# From patent US11135244B2, “Stem cell culture media and methods of enhancing cell survival” (Fate Therapeutics, Inc., priority 2013, dated 2021)
# Experiments:
# [1] = tested on: CXCR4 surface protein within Lin-CD45lowCD34+7AAD- cells; experiment: CXCR4 surface protein on cord blood mononuclear cells after dmPGE2 treatment; format: cell-based; conditions: 10 μM dmPGE2 two hours at 37° C., then additional one hour incubation without dmPGE2
# Procedure: Cord blood mononuclear cells (All Cells, Emeryville, Calif.) were thawed in a 37° C. water bath and immediately diluted with 10 mL of pre-warmed IMDM with 10% fetal calf serum and 5 uL of DNase (Life Technologies, Grand Island, N.Y.). The cells were split three ways and centrifuged at 300×g for 10 minutes. The cells were resuspended in STEMSPAN-ACF (Media 1), STEMSPAN-ACF with 5% Dextran-40 (Media 2) or STEMSPAN-ACF with 10% Dextran-40 (Media 3). A subset, 1×10^6 cells, from Media 1 were kept at 4° C. and immediately stained with Lineage Mix-FITC, CXCR4-PE, CD34-APC, and CD45-V450 antibodies from BD Biosciences. All 3 media conditions were split into a vehicle-treated cohort and a 10 μM dmPGE2-treated cohort and incubated at 37° C. for 2 hours. The cells were washed with the same media and incubated at 37° C. for an additional 1 hour. Each cohort was stained with the same antibodies as indicated above. Levels of CXCR4 surface protein within the Lin-CD45^lowCD34+7AAD-cells were analyzed.
# [2] = tested on: CXCR4 gene expression; experiment: CXCR4 gene expression after incubation with dmPGE2; format: cell-based; conditions: 10 μM dmPGE2 for two hours at 37° C.
smiles,measurement,setting,value
"CCCCC(C)(C)[C@H](O)/C=C/[C@H]1[C@H](O)CC(=O)[C@@H]1C/C=C\CCCC(=O)O [dmPGE2, 16,16-dimethyl PGE2]",CXCR4 surface protein,[1],increased
same,CXCR4 gene expression,[2],increased
